“Also recorded” adds a separate entry of the source. Structures can show the parent of a compound that is named as a salt.

We go through 4 compounds from patent US20070249709A1, “Crystal forms of (S)-(8(2,6-dichlorophenyl)-6-fluoro-2,3-dihydro benzo[b][1,4]dioxin-2-yl)methanamine hydrochloride salt” (Wyeth, priority 2006, published 2007).

Common to all, as to type: physicochemical
Data set [1] is described as follows: Hygroscopicity by dynamic vapor sorption (DVS). As to conditions: for Reversibility of DVS mass change / Crystal form stability at high humidity (DVS): hydrochloride; for Crystal form stability at high humidity (DVS): high RH. An excerpt: The hygroscopicity (the ability to absorb water vapor from the surrounding atmosphere) of Forms I and II was explored by dynamic vapor sorption (DVS) experiments. […] When RH was scanned from 70% to 100%, significant mass change was observed (up to about 4.5%). […] When RH continued to be scanned from 50% to 0%, the sample lost water (weight). […] A second cycle of scanning indicated a new absorption behavior when RH was raised from 50% to 100%.
The starting RH was about 50%, and only about 1% of mass change was observed when RH was scanned to 100% RH. When RH was scanned back to 50%, the mass change appeared reversible. The mass change was very slow when RH continued to be scanned from 50% to 10%. When RH was scanned from 10% to 0%, the sample lost about 2.7% of mass (water).

Another data set in a line: Grinding test. As to conditions: manually ground, ambient conditions; hydrochloride. From the text:
Samples of Form I and Form II were manually ground and the resulting powders were characterized by one or more methods of XRPD, DSC and TGA.

Data set [2] can be described thus: Solution mediated transformation (reslurry stability experiments at 25° C.). As to conditions: for Stability on slurrying (summary of Table 6): water or organic solvent, hydrochloride. An excerpt: The mixtures were then filtered and the solids obtained were characterized by one or more methods of XRPD, DSC and TGA.
Data set [3] can be described thus: Thermal stability of crystal forms under vacuum and 50° C. As to conditions: vacuum. The procedure: Forms I, II and III were placed in oven at 50° C. and under vacuum to assess their thermal stability.
Data set [4] can be described thus: Slurry of a mixture of Form I and Form III in a solvent, crystal form by XRPD/DSC. As to conditions: for Final Form, Slurry @ RT: about 2 days. The procedure: A mixture of Form I and Form III (2θ-50 wt % of Form III) was slurried in a solvent (see Table 5) with stirring at room temperature for about 2 days. The slurry was then filtered at room temperature. The solid was dried at 50° C. under vacuum for overnight. The solid obtained by the filtration was characterized by XRPD both before and after the drying at 50° C.

Data set [5] is described as follows: Heating of a mixture of Form I and Form III. The procedure: A mixture of Form I and Form III (2θ-50 wt % of Form III) was heated to 110° C. at ambient pressure and kept at this temperature and pressure for 4 hours.
A mixture of Form I and Form III (2θ-50 wt % of Form III) was placed in an oven at 50° C. and under vacuum for 72 hours.

[6] abbreviates: RH scanned from 100% back to 50%, room temperature.

In the case of `NC[C@H]1COc2cc(F)cc(-c3c(Cl)cccc3Cl)c2O1` [Form I, (S)-(8-(2,6-dichlorophenyl)-6-fluoro-2,3-dihydrobenzo[b][1,4]dioxin-2-yl)methanamine hydrochloride], the DVS mass change result in data set [1] (RH from about 50% to 70%, room temperature (FIG. 3)) is “little mass change”. The “Water absorption (DVS)” value in data set [1] (RH raised from 0% only to about 70% (FIG. 4)) is given as “absorbed very little water”. Moreover, in data set [1] (RH scanned from 70% to 100%, room temperature), the DVS mass change entry is “up to 4.5%”. Besides, in data set [1] (setting [6]), the “DVS mass change remaining” value is listed as “about 2.7%” and the “Reversibility of DVS mass change” value is given as “substantially irreversible”. The “Crystal form stability at high humidity (DVS)” value in data set [1] (room temperature) is “may be converted into another form at high RH”. Besides, the “Solid form After grinding” value in the data set “Grinding test” is recorded as “some of Form I is changed into Form III”. Further, the “Stability on slurrying (summary of Table 6)” value (shortened to “Stability on slurrying”) in data set [2] was “stable in organic solvents”. Also, in data set [3], the “Relative thermal stability (retention of crystal lattice integrity)” value is on record as “more stable than Form III”. Moreover, in data set [3] (48 hr), the “Final Form” value was “Form I”.

In the case of `NC[C@H]1COc2cc(F)cc(-c3c(Cl)cccc3Cl)c2O1` [Form II, (S)-(8-(2,6-dichlorophenyl)-6-fluoro-2,3-dihydrobenzo[b][1,4]dioxin-2-yl)methanamine hydrochloride], in data set [1] (RH scanned from 10% to 0%, room temperature), the “DVS mass (water) loss” value was “about 2.7%”. Also, the “Reversibility of DVS mass change” value in data set [1] (setting [6]) is on record as “reversible”. Further, the DVS mass change result in data set [1] (RH scanned from about 50% to 100%, room temperature (FIG. 8)) is reported as “about 1%”. Moreover, in data set [1] (room temperature), the “Crystal form stability at high humidity (DVS)” value is listed as “substantially stable even under high humidity”. Further, the “Solid form After grinding” value in the data set “Grinding test” was “did not lose its crystal structure; also recorded: Form II”. Besides, in data set [2] (reslurry in tBME, 30 mins), the “Final form, Sample from wet filter cake” value is “I + II”. Moreover, the “Stability on slurrying” value in data set [2] was “stable in water”. Also, the “Relative thermal stability (retention of crystal lattice integrity)” value in data set [3] is reported as “more stable than Form III”. Moreover, the “Final Form” value in data set [3] (72 hr) was “Form II”.

In the case of `NC[C@H]1COc2cc(F)cc(-c3c(Cl)cccc3Cl)c2O1` [Form III, (S)-(8-(2,6-dichlorophenyl)-6-fluoro-2,3-dihydrobenzo[b][1,4]dioxin-2-yl)methanamine hydrochloride], the “Stability on slurrying” value in data set [2] is “less stable under some conditions”. Besides, the “Final Form” value in data set [3] (20 hr) is “Form I + Form III”.

Regarding `NC[C@H]1COc2cc(F)cc(-c3c(Cl)cccc3Cl)c2O1` [I & III, (S)-(8-(2,6-dichlorophenyl)-6-fluoro-2,3-dihydrobenzo[b][1,4]dioxin-2-yl)methanamine hydrochloride], the “Final Form, Slurry @ 50° C.” value in data set [4] (Isopropyl acetate) is “by DSC (I and minor III)”. Besides, the “Final Form, Slurry @ RT” value in data set [4] (Isopropyl acetate) is “DSC (I and minor III)”; in data set [4] (Toluene) it was “DSC (I and minor III)”. For the same compound, the “Resulting solid form (XRPD)” value in data set [5] (110° C., ambient pressure, 4 hours) is “anhydrous Form I”; in data set [5] (oven at 50° C., under vacuum, 72 hours), “anhydrous Form I”.
